Values of other authors, collected in patent publication US7399639B2, “Sensors, and methods of making and using the same” (Massachusetts Institute of Technology, priority 2003, dated 2008).

Tests used:
[1] = reported elsewhere, cited from earlier work
[2] = reported elsewhere; cited from earlier work
[3] = reported elsewhere; cited from earlier work; remark: listed apart in the source
[4] = reported elsewhere; cited from earlier work; remark: listed apart in the source

O=C(O)c1ccccc1-c1c2cc(Cl)c(=O)cc-2oc2c(CNc3ccccc3CN(Cc3ccccn3)Cc3ccccn3)c(O)ccc12 [Zinpyr-4]
quantum efficiency ([1]; metal-free): 0.05 | increase in brightness upon Zn(II) binding [1]: 6.7 fold | quantum efficiency of Zn(II) complex [1]: 0.34 | metal ion selectivity [2]: Zn(II) and Cd(II) selective | increase in integrated emission in response to the dual-metal buffering system [3]: ~5 fold | pKa of the aniline nitrogen [4]: 7.2
